Data reported in US9078871B2, “Estrogen receptor modulators and uses thereof” (SERAGON PHARMACEUTICALS, INC., priority 2010, dated 2015).

Columns and labels:
Assay type in all cases: cell-based
ER-α [1] = target: T1, ER-α (Homo sapiens, UniProt P03372); assay: ER-α In Cell Western Assay (ER1D5); conditions: MCF-7 cells, ER1D5 antibody, 4 or 24 hr post compound addition, read-out: ER In-Cell Western Assay (ER1D5); for Emax: MCF7, Max Response; for DC50: IC50
T1 construct: endogenous in cells; host or cells: MCF-7
T1 sequence (P03372 1-595): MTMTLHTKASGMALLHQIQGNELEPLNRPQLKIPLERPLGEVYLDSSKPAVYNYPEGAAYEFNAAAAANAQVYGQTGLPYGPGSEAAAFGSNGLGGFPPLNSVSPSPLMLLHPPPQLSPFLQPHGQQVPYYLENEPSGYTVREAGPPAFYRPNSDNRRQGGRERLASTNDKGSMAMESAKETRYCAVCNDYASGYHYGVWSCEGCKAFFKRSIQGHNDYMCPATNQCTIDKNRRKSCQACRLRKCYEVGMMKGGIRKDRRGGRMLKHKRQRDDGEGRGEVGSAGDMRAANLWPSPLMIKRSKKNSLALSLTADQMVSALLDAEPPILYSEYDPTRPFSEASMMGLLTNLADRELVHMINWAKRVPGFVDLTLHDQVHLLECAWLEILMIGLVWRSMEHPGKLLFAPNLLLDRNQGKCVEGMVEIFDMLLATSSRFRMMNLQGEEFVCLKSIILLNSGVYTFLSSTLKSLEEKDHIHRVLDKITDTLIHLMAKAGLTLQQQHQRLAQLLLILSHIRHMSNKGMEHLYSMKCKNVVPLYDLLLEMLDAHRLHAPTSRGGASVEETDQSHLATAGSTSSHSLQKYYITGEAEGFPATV
Protocol: (§1) MCF-7 cells were adjusted to a concentration of 200,000 cells per mL in RPMI containing 10% charcoal-stripped FBS and 20 mM HEPES. 16 microliters of the cell suspension (3200 cells) was added to each well of a poly-D-lysine 384 well plate, and the cells were incubated overnight to allow the cells to adhere. The following day an eleven point, serial semilog dilution of each compound was added to the cells in 16 μL at a final concentration ranging from 0.3-0.000003 μM. At 4 or 24 hr post compound addition, the cells were fixed (10% formalin in PBS) for 20 minutes. Cells were permeabalized in PBS 0.1% Triton and blocked with LICOR blocking buffer (50 μl/well, 90′). The wells were then incubated overnight at 4° C. with ER1D5 (Santa Cruz Biotechnology) diluted 1:100 in LICOR blocking buffer/0.1% Tween-20. Wells which were treated with blocking buffer with Tween but no antibody were used as a background control. Wells were washed with 0.1% Tween-20/PBS and then incubated in goat anti-mouse IRDye™ 800CW (LICOR Inc.; 1:1000) and DRAQ5 DNA dye (1:2000 for 2 mM stock) diluted in LICOR blocking buffer containing 0.1% Tween-20 and 0.01% SDS for 60 minutes. Cells were washed (50 μl/well, 5′ each) in 0.1% Tween-20/PBS. Plates were scanned on a LICOR Odyssey infrared imaging system. Integrated intensities in the 800 nm channel and 700 nm channel were measured to determine levels of ER and DNA respectively. Percent ER levels were determined as follows: (Integrated intensity 800 nm sample/integrated intensity 700 nm sample)/(Integrated intensity 800 nm untreated cells/integrated intensity 700 nm untreated cells)×100=% ER levels.

ER-α [2] = target: T1, ER-α; assay: ER-α in Cell Western Assay (SP1); conditions: MCF-7 cells, SP1 rabbit monoclonal Ab, 4 or 24 hr post compound addition, read-out: ER In-Cell Western Assay (SP1); for Emax: MCF7, Max Response; for DC50: IC50
Protocol: as §1, with “with SP1 rabbit monoclonal Ab (Thermo Scientific)” for “with ER1D5 (Santa Cruz Biotechnology)”, “diluted 1:1000” for “diluted 1:100”, “goat anti-rabbit” for “goat anti-mouse”

MCF-7 cells = assay: Breast Cancer Cell Viability Assay (MCF7 Viability Assay); conditions: 5 days' compound exposure, CellTiter-Glo; for IC50: Homo sapiens, MCF7, 120 h
Protocol: MCF-7 cells were adjusted to a concentration of 20,000 cells per mL in RPMI containing 10% FBS and 20 mM HEPES. 16 microliters of the cell suspension (320 cells) was added to each well of a 384 well plate, and the cells were incubated overnight to allow the cells to adhere. The following day an eleven point, serial semilog dilution of each compound was added to the cells in 16 μL at a final concentration ranging from 0.3-0.000003 μM. After 5 days' compound exposure, 16 μL of CellTiter-GLo (Promega, Madison Wis.) was added to the cells the relative luminescence units (RLUs) of each well was determined. CellTiter-Glo added to 32 μL of medium without cells was used to obtain a background value. The Percent viability of each sample was determined as follows: (RLU sample-RLU background/RLU untreated cells-RLU background)×100=% viability.

Row | Compound | Emax (ER-α [1]) | DC50 (ER-α [1]) | Emax (ER-α [2]) | DC50 (ER-α [2]) | MCF7 Viability Assay Max Response (MCF-7 cells) | IC50 (MCF-7 cells)
1 | CNCCOc1ccc(C2Oc3ccc(O)cc3C(C)=C2c2cccc(O)c2)cc1 (stereo not drawn) [Example 3, 3-(3-Hydroxyphenyl)-4-methyl-2-(4-(2-(methylamino)ethoxy)phenyl)-2H-chromen-6-ol] | < 40% | ≤ 1 nM | < 60% | ≤ 1 nM | ++ (++ = a single % value ≧50%) | ≤ 1 nM
2 | CC1=C(c2cccc(O)c2)C(c2ccc(N(C)CCO)cc2)Oc2ccc(O)cc21 (stereo not drawn) [Example 4, 2-(4-((2-Hydroxyethyl)(methyl)amino)phenyl)-3-(3-hydroxyphenyl)-4-methyl-2H-chromen-6-ol] | < 40% | > 1 nM | < 60% | > 1 nM | + (+ = a single % value <50%) | > 1 nM
3 | CCN(CC)CCOc1ccc(C2Oc3ccc(O)cc3C(C)=C2c2cccc(O)c2)cc1 (stereo not drawn) [Example 5, 2-(4-(2-(Diethylamino)ethoxy)phenyl)-3-(3-hydroxyphenyl)-4-methyl-2H-chromen-6-ol] | < 40% | > 1 nM | < 60% | ≤ 1 nM | ++ (++ = a single % value ≧50%) | ≤ 1 nM
4 | CC1=C(c2cccc(O)c2)C(c2ccc(OC[C@H](C)N3CCCC3)cc2)Oc2ccc(O)cc21 (stereo partly drawn) [Example 6, 3-(3-Hydroxyphenyl)-4-methyl-2-(4-((S)-2-(pyrrolidin-1-yl)propoxy)phenyl)-2H-chromen-6-ol] | ≥ 65% | ≤ 1 nM | 60 to 85% | ≤ 1 nM | ++ (++ = a single % value ≧50%) | ≤ 1 nM
5 | CC1=C(c2cccc(O)c2)C(c2ccc(OC[C@@H](C)N3CCCC3)cc2)Oc2ccc(O)cc21 (stereo partly drawn) [Example 7, 3-(3-Hydroxyphenyl)-4-methyl-2-(4-((R)-2-(pyrrolidin-1-yl)propoxy)phenyl)-2H-chromen-6-ol] | < 40% | > 1 nM | < 60% | ≤ 1 nM | + (+ = a single % value <50%) | ≤ 1 nM
6 | CC1=C(c2cccc(O)c2)C(c2ccc(OCCN3CC[C@@H](C)C3)cc2)Oc2ccc(O)cc21 (stereo partly drawn) [Example 8, 3-(3-Hydroxyphenyl)-4-methyl-2-(4-(2-((R)-3-methylpyrrolidin-1-yl)ethoxy)phenyl)-2H-chromen-6-ol] | ≥ 65% | ≤ 1 nM | ≥ 85% | ≤ 1 nM | ++ (++ = a single % value ≧50%) | ≤ 1 nM
7 | CC1=C(c2cccc(O)c2)C(c2ccc(OCCN3CCCCC3)cc2)Oc2ccc(O)cc21 (stereo not drawn) [Example 9, 3-(3-Hydroxyphenyl)-4-methyl-2-(4-(2-piperidylethoxy)phenyl)-2H-chromen-6-ol] | 40 to 65% | ≤ 1 nM | 60 to 85% | ≤ 1 nM | ++ (++ = a single % value ≧50%) | ≤ 1 nM
8 | CC1=C(c2cccc(O)c2)C(c2ccc(OC[C@@H](C)N3CC[C@@H](C)C3)cc2)Oc2ccc(O)cc21 (stereo partly drawn) [Example 10, 3-(3-Hydroxyphenyl)-4-methyl-2-(4-((R)-2-((R)-3-methylpyrrolidin-1-yl)propoxy)phenyl)-2H-chromen-6-ol] | < 40% | ≤ 1 nM | 60 to 85% | ≤ 1 nM | + (+ = a single % value <50%) | ≤ 1 nM
9 | CC1=C(c2cccc(O)c2)C(c2ccc(OCCN3CC[C@H](C)C3)cc2)Oc2ccc(O)cc21 (stereo partly drawn) [Example 11, 3-(3-Hydroxyphenyl)-4-methyl-2-(4-(2-((S)-3-methylpyrrolidin-1-yl)ethoxy)phenyl)-2H-chromen-6-ol] | 40 to 65% | ≤ 1 nM | 60 to 85% | ≤ 1 nM | ++ (++ = a single % value ≧50%) | ≤ 1 nM
10 | CC1=C(c2cccc(O)c2)C(c2ccc(OC[C@H](C)N3CC[C@H](C)C3)cc2)Oc2ccc(O)cc21 (stereo partly drawn) [Example 12, 3-(3-Hydroxyphenyl)-4-methyl-2-(4-((S)-2-((S)-3-methylpyrrolidin-1-yl)propoxy)phenyl)-2H-chromen-6-ol] | 40 to 65% | ≤ 1 nM | 60 to 85% | ≤ 1 nM | ++ (++ = a single % value ≧50%) | ≤ 1 nM
11 | CC1=C(c2cccc(O)c2)C(c2ccc(OC[C@@H](C)N3CC[C@H](C)C3)cc2)Oc2ccc(O)cc21 (stereo partly drawn) [Example 13, 3-(3-Hydroxyphenyl)-4-methyl-2-(4-((R)-2-((S)-3-methylpyrrolidin-1-yl)propoxy)phenyl)-2H-chromen-6-ol] | < 40% | ≤ 1 nM | < 60% | ≤ 1 nM | ++ (++ = a single % value ≧50%) | ≤ 1 nM
12 | CC1=C(c2cccc(O)c2)C(c2ccc(OCCn3cccc3)cc2)Oc2ccc(O)cc21 (stereo not drawn) [Example 14, 3-(3-Hydroxyphenyl)-4-methyl-2-(4-(2-pyrrolylethoxy)phenyl)-2H-chromen-6-ol] | 40 to 65% | ≤ 1 nM | 60 to 85% | ≤ 1 nM | + (+ = a single % value <50%) | ≤ 1 nM
13 | CC1=C(c2cccc(O)c2)C(c2ccc(OC[C@H](C)N3CCCCCC3)cc2)Oc2ccc(O)cc21 (stereo partly drawn) [Example 15, 2-(4-((S)-2-(Azepan-1-yl)propoxy)phenyl)-3-(3-hydroxyphenyl)-4-methyl-2H-chromen-6-ol] | 40 to 65% | ≤ 1 nM | 60 to 85% | ≤ 1 nM | ++ (++ = a single % value ≧50%) | ≤ 1 nM
